Results as given in US11363815B2, “Trifluoroethyl thioether (sulfoxide) substituted benzene compound and use thereof” (SHENYANG UNIVERSITY OF CHEMICAL TECHNOLOGY, priority 2018, dated 2022).

System: Tetranychus cinnabarinus eggs
Test: Determination of activity of Tetranychus cinnabarinus eggs (greenhouse spray test)
Assay type: in vivo
Settings: 120 h, concentration of the chemical solution 5 mg/L, spray treatment of eggs on marrow bean leaf, examined after 5 days, read-out: hatching inhibition rate for Tetranychus cinnabarinus eggs
Method: The acaricidal activity in a greenhouse was determined by using the compound of the present invention. The determination method is as follows: According to the solubility of the compound to be tested, the compound was dissolved with acetone or dimethyl sulfoxide, and prepared into 50 ml of solution to be tested in a concentration needed with 0.1% Tween 80 solution, in which the content of acetone or dimethyl sulfoxide comprises not more than […]. A potted marrow bean seedling with two true leaves was taken, one true leaf was removed, then 10 female adult mites of healthy Tetranychus cinnabarinus were inoculated to the leaf, the adult mites were removed after 24 hours, spray treatment was performed after examination of the number of eggs. Every treatment was performed for 3 times. After 5 days, when all the blank control eggs were incubated, the number of the eggs which were not incubated in each treatment was examined to calculate the incubation inhibition rate.

Row | SMILES | inhibition at 5 µg/mL [%]
1 | Cc1cc(F)c(N2Cc3ccccc3C2=O)cc1SCC(F)(F)F [compound 1] | ≥ 90
2 | Cc1cc(F)c(N2Cc3ccccc3C2=O)cc1[S+]([O-])CC(F)(F)F (centres unmarked) [compound 2] | ≥ 90
